From patent US6355799B1, “Substituted benzene compounds, process for their preparation, and herbicidal and defoliant compositions containing them” (ISK Americas Incorporated, priority 1997, dated 2002)
Read-outs that look alike come from different tables or passages of the source.

Tests used:
Type in all cases: in vivo
[1] = tested on: common ragweed (Ambrosia artemisizfolia L., AMBEL); assay: Pre-emerge test, greenhouse herbicide activity screening; conditions: for Pre-emerge Herbicidal Activity AMBEL (phytotoxicity rating, scale 0-100): rated 14 days after application, 0 = no damage, 100 = complete death
How it was run: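 Compounds in acetone were track-sprayed at 187 l/ha, 15–1000 g ai/ha, onto sandy loam pots. Pre-emerge seeds were sown one day before spraying, with surface watering afterwards. Post-emerge plants were at the 2–3 leaf stage and sprayed with 0.25% v/v non-ionic surfactant. Injury was rated 0–100 at 14 days.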

[2] = tested on: redroot pigweed (Amaranthus retroflexus, AMARE); assay: Post-emerge test, greenhouse herbicide activity screening; conditions: for pest or weed control at 63 g/ha / pest or weed control at 250 g/ha: Amaranthus retroflexus, post-emergence, 336 h, read-out: Post-emerge Herbicidal Activity AMARE
How it was run: (§1)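 Visual ratings on a 0-100 scale (0 no damage, 100 all plants dead) were taken at 14 days after treatment. Rates of 15-1000 g ai/ha in acetone, 187 l/ha, were sprayed onto soil one day after planting (pre-emerge) or onto 2-3 leaf plants with 0.25% v/v surfactant (post-emerge).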

[3] = tested on: lambsquarters (Chenopodium album, CHEAL); assay: as above; conditions: for pest or weed control at 63 g/ha / pest or weed control at 250 g/ha: Chenopodium album, post-emergence, 336 h, read-out: Post-emerge Herbicidal Activity CHEAL; for phytotoxicity rating CHEAL: rating scale 0-100
How it was run: as §1

[4] = tested on: common ragweed (Ambrosia artemisizfolia L., AMBEL); assay: as above; conditions: for phytotoxicity rating AMBEL: rating scale 0-100
How it was run: as §1

[5] = tested on: barnyardgrass (Echinochloa crus-galli, ECHCG); assay: as above; conditions: for pest or weed control at 63 g/ha / pest or weed control at 250 g/ha: Echinochloa crus-galli, post-emergence, 336 h, read-out: Post-emerge Herbicidal Activity ECHCG; for phytotoxicity rating ECHCG: rating scale 0-100
How it was run: as §1

[6] = tested on: velvetleaf (Abutilon theophrasti, ABUTH); assay: as above; conditions: for pest or weed control at 63 g/ha / pest or weed control at 250 g/ha: Abutilon theophrasti, post-emergence, 336 h, read-out: Post-emerge Herbicidal Activity ABUTH; for phytotoxicity rating ABUTH: rating scale 0-100
How it was run: as §1

[7] = post-emerge, 63 g ai/ha, phytotoxicity rating 0-100 at 14 days after application
[8] = post-emerge, 250 g ai/ha, phytotoxicity rating 0-100 at 14 days after application
[9] = 63 g ai/ha, phytotoxicity rating 0-100 (0 no damage, 100 complete death), 14 days after application
[10] = 250 g ai/ha, phytotoxicity rating 0-100 (0 no damage, 100 complete death), 14 days after application
[11] = 63 g ai/ha, phytotoxicity rating 0-100, 14 days after application
[12] = 250 g ai/ha, phytotoxicity rating 0-100, 14 days after application
[13] = post-emerge, 63 g ai/ha, 14 days after application, rating scale 0-100 (0 no damage, 100 complete death)
[14] = post-emerge, 250 g ai/ha, 14 days after application, rating scale 0-100
[15] = post-emerge, 63 g ai/ha, 14 days after application
[16] = post-emerge, 250 g ai/ha, 14 days after application

Compound | pest or weed control at 63 g/ha [2, 7] | pest or weed control at 250 g/ha [2, 8] | pest or weed control at 63 g/ha [3, 7] | pest or weed control at 250 g/ha [3, 8] | pest or weed control at 63 g/ha [5, 7] | pest or weed control at 250 g/ha [5, 8] | pest or weed control at 63 g/ha [6, 7] | pest or weed control at 250 g/ha [6, 8] | Pre-emerge Herbicidal Activity AMBEL (phytotoxicity rating, scale 0-100) ([1]; 63 g ai/ha, pre-emerge) | Pre-emerge Herbicidal Activity AMBEL (phytotoxicity rating, scale 0-100) ([1]; 250 g ai/ha, pre-emerge) | pest or weed control at 63 g/ha [2, 9] | pest or weed control at 250 g/ha [2, 10] | pest or weed control at 63 g/ha [3, 9] | pest or weed control at 250 g/ha [3, 10] | Post-emerge Herbicidal Activity AMBEL [4, 9] | Post-emerge Herbicidal Activity AMBEL [4, 10] | pest or weed control at 63 g/ha [5, 9] | pest or weed control at 250 g/ha [5, 10] | pest or weed control at 63 g/ha [6, 9] | pest or weed control at 250 g/ha [6, 10] | other results
COc1c(Cl)cc(F)c(-c2nn(C)c(C(F)(F)F)c2Cl)c1N [Compound 7-2, 4-chloro-3-(2-amino-4-chloro-6-fluoro3-metoxyphenyl)-1-methyl-5-trifluoromethyl-1H-pyrazole] | 100% | 100% | 95% | 100% | 30% | 90% | 100% | 100% |  |  |  |  |  |  |  |  |  |  |  |  | Pre-emerge Herbicidal Activity AMBEL ([1]; pre-emerge, rate 63 g ai/ha, phytotoxicity rating 0-100 at 14 days after application): 80; Pre-emerge Herbicidal Activity AMBEL ([1]; pre-emerge, rate 250 g ai/ha, phytotoxicity rating 0-100 at 14 days after application): 100; Post-emerge Herbicidal Activity AMBEL [4, 7]: 0; Post-emerge Herbicidal Activity AMBEL [4, 8]: 10
COc1c(Cl)cc(F)c(-n2c(=O)cc(C(F)(F)F)n(C)c2=O)c1N(C(C)=O)C(C)=O [Compound 2-2, 3-(4-chloro-2-diacetylamino-6-fluoro-3-methoxyphenyl)-1-methyl-6-trifluoromethyl-2,4(1H, 3H)-pyrimidinedione] |  |  |  |  |  |  |  |  | 40 | 100 | 90% | 100% | 60% | 100% | 0 | 70 | 0% | 40% | 95% | 100% | 
Nc1c(O)c(Cl)cc(F)c1N1C(=O)C2=C(CCCC2)C1=O [Compound 8-2, 2-amino-6-chloro-4-fluoro-3-tetrahydrophthalimido)phenol] | 95% | 100% | 40% | 80% | 20% | 30% | 100% | 100% |  |  |  |  |  |  |  |  |  |  |  |  | Post-emerge Herbicidal Activity AMBEL [4, 7]: 30; Post-emerge Herbicidal Activity AMBEL [4, 8]: 90
COc1c(Cl)cc(F)c(-n2c(=O)cc(C(F)(F)F)n(C)c2=O)c1NC(N)=O [Compound 3-26, 3-(2-aminocarbonylamino-4-chloro-6-fluoro-3-methoxyphenyl)-1-methyl-6-trifluoromethyl-2,4(1H, 3H)-pyrimidinedione] |  |  |  |  |  |  |  |  |  |  |  |  |  |  |  |  |  |  |  |  | Pre-emerge Herbicidal Activity AMBEL [1, 11]: 10; Pre-emerge Herbicidal Activity AMBEL [1, 12]: 90; phytotoxicity rating AMARE [2, 13]: 50; phytotoxicity rating AMARE [2, 14]: 65; phytotoxicity rating CHEAL [3, 15]: 50; phytotoxicity rating CHEAL [3, 16]: 60; phytotoxicity rating ECHCG [5, 15]: 0; phytotoxicity rating ECHCG [5, 16]: 0; phytotoxicity rating ABUTH [6, 15]: 60; phytotoxicity rating ABUTH [6, 16]: 60
COc1c(Cl)cc(F)c(-n2c(=O)cc(C(F)(F)F)n(C)c2=O)c1[N+](=O)[O-] [Compound 1-5, 3-(4-chloro-6-fluoro-3-methoxy-2-nitrophenyl)-1-methyl-6-trifluoromethyl-2,4(1H, 3H)-pyrimidinedione] |  |  |  |  |  |  |  |  | 0 | 20 | 0% | 40% | 0% | 50% | 0 | 30 | 0% | 0% | 10% | 60% | 
Cn1c(C(F)(F)F)cc(=O)n(-c2c(F)cc(Cl)c(O)c2N)c1=O [Compound 1-16, 3-(2-amino-4-chloro-6-fluoro-3-hydroxyphenyl)-1-methyl-6-trifluoromethyl-2,4(1H, 3H)-pyrimidinedione] |  |  |  |  |  |  |  |  | 0 | 0 | 30% | 70% | 30% | 60% | 0 | 0 | 0% | 0% | 30% | 50% | 
CNC(=O)N(C(=O)NC)c1c(OC)c(Cl)cc(F)c1-n1c(=O)cc(C(F)(F)F)n(C)c1=O [Compound 3-1, 3-[2-bis(methylaminocarbonyl)amino-4-chloro-6-fluoro-3-methoxyphenyl]-1-methyl-6-trifluoromethyl-2,4(1H, 3H)-pyrimidinedione] |  |  |  |  |  |  |  |  |  |  |  |  |  |  |  |  |  |  |  |  | Pre-emerge Herbicidal Activity AMBEL [1, 11]: 0; Pre-emerge Herbicidal Activity AMBEL [1, 12]: 0; phytotoxicity rating AMARE [2, 13]: 0; phytotoxicity rating AMARE [2, 14]: 60; phytotoxicity rating CHEAL [3, 15]: 0; phytotoxicity rating CHEAL [3, 16]: 60; phytotoxicity rating AMBEL [4, 15]: 0; phytotoxicity rating AMBEL [4, 16]: 0; phytotoxicity rating ECHCG [5, 15]: 0; phytotoxicity rating ECHCG [5, 16]: 0; phytotoxicity rating ABUTH [6, 15]: 0; phytotoxicity rating ABUTH [6, 16]: 0
CC(C)Oc1c(Cl)cc(F)c(-n2nnn(CCCF)c2=O)c1N [Compound 5-18, 1-(2-amino-4-chloro-6-fluoro-3-isopropyloxyphenyl)-4-(3fluoropropyl)-1,4-dihydro-5-oxo-5H-tetrazole] | 0% | 10% | 10% | 10% | 0% | 0% | 70% | 70% |  |  |  |  |  |  |  |  |  |  |  |  | 
Cc1nn(-c2c(Cl)cc(Cl)c(N)c2N)c(=O)n1C(F)F [Compound 6-20] | 0% | 60% | 0% | 60% | 0% | 0% | 0% | 50% |  |  |  |  |  |  |  |  |  |  |  |  | 
Cc1nn(-c2c(F)cc(Cl)cc2NC(=O)c2ccc3ccccc3c2)c(=O)n1C(F)F [Compound 6-24] | 0% | 80% | 30% | 90% | 0% | 0% | 20% | 95% |  |  |  |  |  |  |  |  |  |  |  |  | 
